Values of other authors, collected in patent US20050025807A1, “Cured porous calcium phosphate material and uses thereof” (NATIONAL INSTITUTE OF ADVANCED INDUSTRIAL SCIENCE AND …, priority 2003, published 2005).

Conditions: agitation 200 to 300 rpm at 30° C.; calculated by Nernst-Noyes-Whitney formula

In the case of `CCC1(c2ccccc2)C(=O)NC(=O)NC1=O` [phenobarbitol], the “Thickness of diffusion layer” value is listed as “about 30 microns”.
